Key:
MDA-MB-231 xenografts = assay: Growth of MDA-MB-231 xenografts transplanted in situ into mammary gland fat pads; format: in vivo, mice; conditions: Rebastinib 80 mg/kg by gavage, 13 days, vs solvent control; FIG. 5A-5D
From the text: Lentivirus-infected breast tumor cells were resuspended with 50% of FBS (diluted with PBS), added with Matrigel at a volume ratio of 1:1, then added with 0.04% of trypan blue, mixed well, and placed on ice until inoculation into mice. After the mouse was anesthetized, it was placed on an experimental table with its abdomen facing upwards, and a “Y”-shaped opening was cut in its abdominal epidermis along a midline and the direction of the lower limbs on both sides with scissors (without cutting the peritoneum). The opening was peeled off to both sides with cotton swabs and tweezers to expose the fourth pair of mammary gland fat pads, and the epidermis was fixed with needles. 10-20 μL of a cell suspension was drawn up with a syringe and injected into the mammary gland fat pads. Finally, the skin on both sides was closed and sutured with surgical staples. The surgical staples could be removed after the wound healed. Since the surgery, the occurrence of tumors in the mouse was observed and recorded every day. After about one week, the length and width of the tumor were measured with a vernier caliper and recorded, and the change in the weight of the mouse was monitored. The tumor volume was calculated by the following formula: Volume (mm^3)=length×width×width×0.52.
(§1) The tumor cell line was transplanted in situ as that in Example 1. When the tumor size reached […], the mice were divided into a control group (solvent) and a group administrated with Rebastinib (80 mg/kg), with 3 mice in each group. The mice were administrated by gavage continuously (administrated with MDA-MB-231 xenografts for 13 days and administrated with PDX for 11 days), during which the mice were weighed every day, and the tumor size was measured every three days. After completion of the administration, the mice were sacrificed and the tumors were weighed.

TNBC-type PDX tumors = assay: Growth of TNBC-type PDX tumors; format: in vivo, NSG mice; conditions: Rebastinib 80 mg/kg by gavage, 11 days, vs solvent control; FIG. 5H-5K
Protocol: Primary tumor cells from the patient infected with the lentivirus were in-situ injected into the fourth pair of mammary gland fat pads of the NSG mice according to the method described in 3, and the occurrence of tumors was observed and recorded.
as §1

TNBC-type PDOs = assay: Growth of TNBC PDO (patient-derived organoids in Matrigel); format: cell-based, human; conditions: 1 μM and 5 μM
Protocol: The primary tumor cells from the patient infected with the lentivirus were resuspended with pre-cooled Matrigel to a concentration of 2× 10^4 cells/50 μL Matrigel. The Matrigel was added dropwise into a 24-well culture plate and allowed to stand at 37° C. for 15-20 min. After confluence, the cells were added with a breast cancer tumor organoid culture medium for culture, the culture medium was replaced by a fresh culture medium every three days, and the number and size of organoid growth were counted.
Similar to the PDO model establishment operation in Example 1, the primary tumor cells derived from TNBC patients were resuspended with pre-cooled Matrigel to a concentration of 2×10^4 cells/50 μL Matrigel. The Matrigel was added dropwise into a 24-well culture plate and allowed to stand at 37° C. for 15-20 min. After confluence, the cells were added with a breast cancer tumor organoid culture medium for culture, and the culture medium was replaced by a fresh culture medium every three days. The PDOs were divided into 6 groups, including an untreated group, a solvent control group, groups administrated with low and high doses of Abemaciclib (with doses of 1 μM and 5 μM, respectively), and groups administrated with low and high doses of Rebastinib (with doses of 1 μM and 5 μM, respectively). After three days of culture, the PDOs were started to be treated by addition of a drug according to groups. The size and number of organoids were counted after one week.

With `CNC(=O)c1cc(Oc2ccc(NC(=O)Nc3cc(C(C)(C)C)nn3-c3ccc4ncccc4c3)c(F)c2)ccn1` [Rebastinib] the “sizes of MDA-MB-231 tumors” value (MDA-MB-231 xenografts) was “significantly inhibits”, the “volumes of MDA-MB-231 tumors” value (MDA-MB-231 xenografts) was “significantly inhibits” and the “weights of MDA-MB-231 tumors” value (MDA-MB-231 xenografts) was “significantly inhibits”. For the same compound, the “sizes of TNBC-type PDX tumors” value (TNBC-type PDX tumors) was “significantly inhibits”, the “volumes of TNBC-type PDX tumors” value (TNBC-type PDX tumors) was “significantly inhibits” and the “weights of TNBC-type PDX tumors” value (TNBC-type PDX tumors) was “significantly inhibits”. For the same compound, the “sizes of TNBC-type PDOs” value (TNBC-type PDOs; counted after one week, FIG. 5E) was “significantly inhibits”, the “number of TNBC-type PDOs” value (TNBC-type PDOs; counted after one week, FIG. 5F) was “significantly reduces” and the “apoptosis of TNBC-type PDOs” value (TNBC-type PDOs; FIG. 5G) was “promotes”. For the same compound, the “proliferation of TNBC-type PDOs” value (TNBC-type PDOs; FIG. 5G) was “significantly inhibits”.
